Bounds are passed on as bounds.

For one data set, the system named is HepaRG spheroids. The experiment in a line: HepaRG 3D spheroid assay. The format is cell-based. To be noted: for Ratio MEC to ALDH2: HepaRG spheroid MEC divided by ALDH-2 IC50; for HepaRG 3D Spheroid MEC: minimum effective concentration crossing vehicle control threshold of cell health marker, 100 μM = highest concentration tested. An excerpt:
See e.g., Walker et al., “The evolution of strategies to minimise the risk of human drug-induced liver injury (DILI) in drug discovery and development,” (2020) Archives of Toxicology, Vol. 94: 2559-2585, which is hereby incorporated by reference herein in its entirety. […] In applying the HepaRG spheroid assay analysis to determining the hepatoxic liability of ALDH-2 inhibitor compounds, consideration is made of the binding to plasma protein and the limitations to CNS penetration due to the blood-brain barrier.
E. HepaRG® 3D spheroid assay: The HepaRG 3D spheroid assay is described in Walker et al., “The evolution of strategies to minimise the risk of human drug-induced liver injury (DILI) in drug discovery and development,” (2020) Archives of Toxicology, Vol. 94: 2559-2585. Briefly, HepaRG® cells were seeded into ultra-low adhesion 96-well black walled clear bottomed spheroid microplates. […] At the end of the incubation period, the spheroids were loaded with the relevant dye/antibody for each cell health marker (spheroid count, spheroid size, DNA structure, mitochondrial mass, mitochondrial membrane potential, oxidative stress, glutathione content, and cellular ATP). The plates were then scanned using an automated fluorescent cellular imager, ArrayScan® (Thermo Scientific Cellomics).

For another data set, the target named is T1, recombinant human ALDH-3 (Homo sapiens, UniProt P30838).
T1 sequence (P30838 1-453): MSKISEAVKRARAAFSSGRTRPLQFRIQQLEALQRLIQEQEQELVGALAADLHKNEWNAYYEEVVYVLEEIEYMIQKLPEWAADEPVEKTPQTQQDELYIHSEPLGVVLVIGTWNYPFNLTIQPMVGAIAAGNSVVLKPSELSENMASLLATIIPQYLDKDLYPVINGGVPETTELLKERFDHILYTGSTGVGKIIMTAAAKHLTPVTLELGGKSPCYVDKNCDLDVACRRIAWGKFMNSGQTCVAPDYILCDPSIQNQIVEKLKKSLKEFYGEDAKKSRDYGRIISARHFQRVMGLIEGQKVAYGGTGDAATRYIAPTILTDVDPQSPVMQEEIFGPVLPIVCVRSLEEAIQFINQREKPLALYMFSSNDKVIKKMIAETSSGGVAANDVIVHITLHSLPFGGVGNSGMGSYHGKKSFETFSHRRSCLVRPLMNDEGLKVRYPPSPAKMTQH
The experiment in a line: ALDH-3 inhibition assay. The data set is classed as biochemical. Conditions: 60 min pre-incubation; 10 μM = highest concentration tested; read-out: Enzymatic Assays IC50 ALDH-3.

The next data set deals with T2, MAO-B (Homo sapiens, UniProt P27338).
T2 sequence (P27338 1-520): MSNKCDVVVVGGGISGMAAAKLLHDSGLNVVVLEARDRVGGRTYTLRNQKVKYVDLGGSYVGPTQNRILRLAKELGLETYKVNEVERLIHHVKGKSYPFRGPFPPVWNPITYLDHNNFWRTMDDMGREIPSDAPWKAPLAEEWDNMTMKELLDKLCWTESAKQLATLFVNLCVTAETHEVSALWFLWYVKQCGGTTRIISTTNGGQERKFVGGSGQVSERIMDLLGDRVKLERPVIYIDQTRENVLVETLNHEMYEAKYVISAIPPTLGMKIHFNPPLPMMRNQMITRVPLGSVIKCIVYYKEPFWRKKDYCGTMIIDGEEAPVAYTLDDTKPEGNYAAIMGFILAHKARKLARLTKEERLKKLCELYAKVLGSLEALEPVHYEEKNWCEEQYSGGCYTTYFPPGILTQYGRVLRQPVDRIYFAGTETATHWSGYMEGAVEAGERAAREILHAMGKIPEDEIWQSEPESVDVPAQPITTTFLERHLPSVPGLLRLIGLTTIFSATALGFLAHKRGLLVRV
The experiment in a line: MAO-B inhibition assay. The format is biochemical. Conditions: 20 min pre-incubation; 10 μM = highest concentration tested; read-out: Enzymatic Assays IC50 MAO-B. On the procedure: (§1) D. MAO-A and MAO-B inhibition assays: MAO assays included luminogenic MAO substrate, reaction buffers, Luciferin Detection, and a reconstitution buffer with esterase. The MAO reaction mixture used in the assay included microsome contained MAO-A (2 μg) or MAO-B (10 μg), 160 μM substrate for MAO-A or 16 μM substrate for MAO-B, MAO-A buffer (100 mM Hepes buffer, pH 7.5, 5% glycerol) or MAO-B buffer (100 mM Hepes, pH 7.5, 5% glycerol, 10% dimethyl sulfoxide) in a final volume of 30 μL. After 20 minutes of pre-incubation of the MAO-A or MAO-B enzyme with the test ALDH-2 inhibitor compound, the reaction was initiated by adding enzyme substrate and the […] reaction was allowed to proceed for 60 minutes. Reconstituted Luciferin Detection Reagent (30 μL) was then added is added to simultaneously stop the MAO reaction and convert the methyl ester derivative to luciferin and produce light. The amount of light produced is directly proportional to the activity of MAO. The mixtures were further incubated for 20 minutes and activity of the enzyme was determined using Perkin-Elmer Envision Reader.

The next data set addresses T3, MAO-A (Homo sapiens, UniProt P21397).
T3 sequence (P21397 1-527): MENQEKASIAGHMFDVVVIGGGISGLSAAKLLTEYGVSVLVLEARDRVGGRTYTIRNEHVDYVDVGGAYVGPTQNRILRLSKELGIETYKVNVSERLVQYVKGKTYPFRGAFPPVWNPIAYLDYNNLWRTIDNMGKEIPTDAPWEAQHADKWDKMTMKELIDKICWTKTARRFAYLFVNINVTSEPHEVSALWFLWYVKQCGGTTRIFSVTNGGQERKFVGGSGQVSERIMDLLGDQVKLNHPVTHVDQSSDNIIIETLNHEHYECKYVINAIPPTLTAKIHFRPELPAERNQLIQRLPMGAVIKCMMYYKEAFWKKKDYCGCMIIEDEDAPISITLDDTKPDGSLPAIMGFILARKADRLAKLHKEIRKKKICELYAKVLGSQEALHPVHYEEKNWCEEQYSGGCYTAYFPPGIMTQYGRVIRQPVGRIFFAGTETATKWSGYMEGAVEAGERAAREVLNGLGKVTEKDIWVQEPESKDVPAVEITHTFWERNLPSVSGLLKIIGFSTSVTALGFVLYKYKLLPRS
The experiment in a line: MAO-A inhibition assay. The format is biochemical. Conditions: 20 min pre-incubation; 10 μM = highest concentration tested; read-out: Enzymatic Assays IC50 MAO-A. On the procedure:
as §1

Method for recombinant human ALDH-3: ALDH-3 inhibition assay: The ALDH-3 reaction mixture used in the assay contained 200 μM benzaldehyde, 2.5 mM NAD+, 20 mM NaCl, 10 mM MgCl2, and 10 nM recombinant human ALDH-3 in 50 mM Hepes buffer, pH 7.5 in a final volume of 10 μL using 384-well Corning 3820 plates. After 60 min of pre-incubation of the test ALDH-2 inhibitor compound with ALDH-3, the reaction was started by adding NAD+ and benzaldehyde and the assay reaction mixture was allowed to proceed for 60 minutes. Activity of the ALDH-3 enzyme was determined by monitoring NADH formation using Perkin-Elmer Envision Reader with excitation and emission wavelengths set at 340 and 460 nm, respectively.

In the case of `Cc1cccc(Cl)c1C(=O)NCc1ccc(-c2cccc(=O)[nH]2)nc1` [(1k), 2-Chloro-6-methyl-N-((6′-oxo-1′,6′-dihydro-[2,2′-bipyridin]-5-yl)methyl)benzamide], the “Ratio MEC to ALDH2” value in the data set on HepaRG spheroids worked out at 2100. In addition, in the data set on HepaRG spheroids, the “HepaRG 3D Spheroid MEC” value came to 21.0 µM. Besides, the IC50 at recombinant human ALDH-3, on MAO-B and on MAO-A was more than 10 µM each time.

Turning to `Cc1nccc(Br)c1C(=O)NCc1ccc(-c2[nH]c(=O)ccc2F)cc1` [(1g), 4-Bromo-N-(4-(3-fluoro-6-oxo-1,6-dihydropyridin-2-yl)benzyl)-2-methylnicotinamide], the “Ratio MEC to ALDH2” value in the data set with HepaRG spheroids was 1668. The “HepaRG 3D Spheroid MEC” value with HepaRG spheroids came out at 46.7 µM. The IC50 at recombinant human ALDH-3, on MAO-B and on MAO-A was more than 10 µM throughout.

`O=C(NCc1ccc(-c2cccc(=O)[nH]2)cc1)c1ccccc1Cl` [(1b), 2-Chloro-N-(4-(6-oxo-1,6-dihydropyridin-2-yl)benzyl)benzamide]: in the data set with HepaRG spheroids, the “Ratio MEC to ALDH2” value is recorded as more than 730. Also, the “HepaRG 3D Spheroid MEC” value in the data set on HepaRG spheroids is reported as “No Effect”. Further, the IC50 on recombinant human ALDH-3, on MAO-B and on MAO-A was more than 10 µM throughout.

Turning to `O=C(NCc1ccc(-c2cccc(=O)[nH]2)nc1)c1ccccc1Cl` [(1l), 2-chloro-N-((6′-oxo-1′,6′-dihydro-[2,2′-bipyridin]-5-yl)methyl)benzamide], the “Ratio MEC to ALDH2” value in the data set with HepaRG spheroids is 50. The “HepaRG 3D Spheroid MEC” value with HepaRG spheroids worked out at 5.95 µM. The IC50 on recombinant human ALDH-3, on MAO-B and on MAO-A was more than 10 µM each time.

Take `Cc1cccc(Cl)c1C(=O)NCc1ccc(-c2cccc(=O)[nH]2)cc1` [(1a), 2-Chloro-6-methyl-N-(4-(6-oxo-1,6-dihydropyridin-2-yl)benzyl)benzamide]: the “Ratio MEC to ALDH2” value in the data set with HepaRG spheroids amounted to 133. The “HepaRG 3D Spheroid MEC” value in the data set with HepaRG spheroids came to 10.4 µM. In addition, the IC50 on recombinant human ALDH-3, at MAO-B and on MAO-A was more than 10 µM each time.

For `Cc1nccc(Cl)c1C(=O)NCc1ccc(-c2cccc(=O)[nH]2)cc1` [(1c), 4-Chloro-2-methyl-N-(4-(6-oxo-1,6-dihydropyridin-2-yl)benzyl)nicotinamide], in the data set on HepaRG spheroids, the “Ratio MEC to ALDH2” value worked out at 90. The “HepaRG 3D Spheroid MEC” value in the data set on HepaRG spheroids came out at 11.5 µM. Moreover, the IC50 on recombinant human ALDH-3, at MAO-B and at MAO-A was more than 10 µM throughout.
